Source: US7253286B2, “Nitrogen-containing aromatic derivatives” (Eisai Co., Ltd, priority 2000, dated 2007)

Test system: Human Umbilical Vein Endothelial Cells (HUVECs)
Experiment: Inhibition against sandwich tube formation by vascular endothelial cells in response to stimulation by VEGF
Type: cell-based
Details: HUVEC in collagen gel sandwich, stimulation by VEGF (25 ng/ml VEGF and 10 ng/ml EGF), 4th day, total tube length, read-out: IC50 (concentration required for 50% inhibition of tube formation)
Description: Inhibition Against Sandwich Tube Formation by Vascular Endothelial Cells in Response to Stimulation by Angiogenic Factor
Human Umbilical Vein Endothelial Cells (HUVECS) were isolated by the same method as in Pharmacological Test Example 1, and were cultured in a 5% CO2 incubator (37° C.) using EGM-2 medium (purchased from Clonetics Corp.) until the cells reached confluency.
An ice-cooled mixture of collagen: 5× RPMI 1640: reconstitution buffer (all purchased from Nitta Gelatin, Inc.) at 7:2:1 was dispensed at 0.4 ml into each well of a 24-well plate, and then stationed for 40 minutes in a 5% CO2 incubator (37° C.) for gelling. The HUVECs were recovered using trypsin-EDTA and then suspended in human endothelial serum free medium (SFM, purchased from GIBCO BRL) containing added angiogenic factors [20 ng/ml FGF2 (purchased from GIBCO BRL) and 10 ng/ml EGF (purchased from GIBCO BRL), or 25 ng/ml VEGF (purchased from Wako Pure Chemical Industries Co., Ltd.) and 10 ng/ml EGF, or 30 ng/ml HGF (purchased from R&D Co.) and 10 ng/ml EGF], and the cell suspension was added at 0.4 ml to each well (with the cell counts differing slightly according to the HUVEC lot), and cultured overnight in a 5% CO2 incubator (37° C.). On the following day, the medium on the upper layer was aspirated off, and then 0.4 ml of an ice-cooled mixture of collagen: 5× RPMI 1640: reconstitution buffer (all purchased from Nitta Gelatin, Inc.) at 7:2:1 was superposed into each well prior to stationing for 4 hours in a 5% CO2 incubator (37° C.) for gelling. After adding 1.5 ml of an SFM solution containing each of the aforementioned angiogenic factors and a diluted test substance onto the upper layer, culturing was performed in a 5% CO2 incubator (37° C.). Upon aspirating off the culture supernatant in each well on the 4th day after addition of the test substance, 0.4 ml of a 3.3 mg/ml MTT solution dissolved in PBS (purchased from Sigma Corp.) was added to each well and culturing was performed for approximately 2 hours in a 5% CO2 incubator (37° C.). The tubes formed in the collagen gel of each well were stained by the MTT, the tube images were loaded into a computer (Macintosh), and the total length of the tubes was determined by image analysis software “MacScope” (purchased from Mitani Corp.). The ratio of the total length of the tubes formed in the well containing the test substance with respect to the total length of the tubes formed in the well containing no test substance was expressed as a percentage, and the concentration of each test substance required for 50% inhibition of tube formation (IC50) was determined from the ratio value.

Compound	IC50 [nM]
CN1CCC(COc2cc3nccc(Oc4ccc5c(ccn5C(=O)Nc5nccs5)c4)c3cc2C#N)CC1 [Example 308]	5.2
CCNC(=O)n1ccc2cc(Oc3ccnc4cc(OCCCN5CCCC5)c(C#N)cc34)ccc21 [Example 299, 5-[6-Cyano-7-(3-(pyrrolidin-1-yl)propoxy)quinolin-4-yloxy]indole-1-carboxylic acid ethylamide]	1
COc1cc2nccc(Oc3ccc4c(ccn4C(=O)NCCCCl)c3)c2cc1C(N)=O [Example 325, 6-Carbamoyl-4-[1-(3-chloropropylcarbamoyl)1H-indol-5-yloxy]-7-methoxyquinoline]	1
CCNC(=O)n1ccc2cc(Oc3ccnc4cc(OC)c(C(=O)NCCF)cc34)ccc21 [Example 518]	1.3
COc1cc2nccc(Oc3ccc(NC(=O)NC4CC4)c(Cl)c3)c2cc1C(=O)Nc1cccnc1 [Example 408, N6-(3-Pyridyl)-4-(3-chloro-4-(((cyclopropylamino)carbonyl)amino)phenoxy)-7-methoxy-6-quinolinecarboxamide]	39
O=C(Nc1cc(Oc2ccc3c(ccn3C(=O)Nc3ccccc3)c2)ccn1)C1CCN(CC2CC2)CC1 [Example 198, N1-Phenyl-5-{[2-({[(1-cyclopropylmethyl)-4-piperidyl]carbonyl}amino)-4-pyridyl]oxy}-1H-1-indolecarboxamide]	1.5
COc1cc2nccc(Oc3ccc(NC(=O)Nc4nccs4)nc3)c2cc1OC [Example 224, N-(5-(6,7-Dimethoxyquinolin-4-yloxy)pyridin-2-yl)-N′-(thiazol-2-yl)urea]	26
CN1CCC(COc2cc3nccc(Oc4ccc(NC(=O)Nc5nccs5)c(F)c4)c3cc2C#N)CC1 [Example 504, N-{4-[6-Cyano-7-(1-methylpiperidin-4-ylmethoxy)quinolin-4-yloxy]-2-fluorophenyl}-N′-(2-thiazolyl)urea]	4.6
CCN(CC)C[C@@H](O)COc1ccc(-c2cc3c(Oc4ccc(NC(=O)NC5CC5)c(Cl)c4)ncnc3[nH]2)cc1 [Example 157]	0.9
CS(=O)(=O)CCOc1cc2nccc(Oc3ccc(NC(=O)Nc4ccc(F)cc4)cc3)c2cc1C#N [Example 59, N-(4-(6-Cyano-7-(2-(methylsulfonyl)ethoxy)-4-quinolyl)oxyphenyl)-N′-(4-fluorophenyl)urea]	170
CCNC(=O)n1ccc2cc(Oc3ccnc4cc(OCC5CCN(C)CC5)c(C#N)cc34)ccc21 [Example 304, 6-Cyano-4-(1-ethylcarbamoylindol-5-yloxy)-7-[(1-methylpiperidin-4-yl)methyloxy]quinoline]	0.3
C#Cc1c(Oc2ccc(NC(=O)Nc3ccc(F)cc3)cc2)ccnc1N(C(=O)C1CC1)C(=O)C1CC1 [Example 186, N1-Cyclopropylcarbonyl-N1-[3-(1-ethynyl)-4-(4-{[(4-fluoroanilino)carbonyl]amino}phenoxy)-2-pyridyl]-1-cyclopropanecarboxamide]	23
COc1cc2nccc(Oc3ccc(NC(=O)Nc4ccccc4)cn3)c2cc1OC [Example 129, N-6-((6,7-Dimethoxy-4-quinolyl)oxy)-3-pyridyl-N′-phenylurea]	40
C#CCNC(=O)c1cc2c(Oc3ccc(NC(=O)NC4CC4)c(Cl)c3)ccnc2cc1OC [Example 445, N6-Propargyl-4-(3-chloro-4-(((cyclopropylamino)carbonyl)amino)phenoxy)-7-methoxy-6-quinolinecarboxamide]	6.2
COC(=O)CCCOc1cc2nccc(Oc3ccc(NC(=O)Nc4ccc(OC)cc4)cc3)c2cc1C#N [Example 70, N-(4-(6-Cyano-7-(3-methoxycarbonylpropoxy)-4-quinolyl)oxyphenyl)-N′-(4-methoxyphenyl)urea]	58
CN1CCCC(COc2cc3nccc(Oc4ccc(NC(=O)Nc5nccs5)c(F)c4)c3cc2C#N)C1 (centres unmarked) [Example 505, N-{4-[6-Cyano-7-(1-methylpiperidin-3-ylmethoxy)quinolin-4-yloxy]-2-fluorophenyl}-N′-(2-thiazolyl)urea]	8.9
CN1CCCC(COc2cc3nccc(Oc4ccc(NC(=O)Nc5ccc(F)cc5)c(F)c4)c3cc2C#N)C1 (centres unmarked) [Example 127, N-(4-(6-Cyano-7-((1-methylpiperidin-3-yl)methoxy)-4-quinolyl)oxy-2-fluorophenyl)-N′-(4-fluorophenyl)urea]	7.5
COCCOc1cc2nccc(Oc3ccc(NC(=O)NC4CC4)cc3)c2cc1C#N [Example 23, N-(4-(6-cyano-7-(2-methoxyethoxy)-4-quinolyl)oxyphenyl)-N′-cyclopropylurea]	100
COc1cc2nccc(Oc3ccc(NC(=O)NC4CC4)c(Cl)c3)c2cc1C(=O)NCCC#N [Example 440, N6-(2-Cyanoethyl)-4-(3-chloro-4-(((cyclopropylamino)carbonyl)amino)phenoxy)-7-methoxy-6-quinolinecarboxamide]	1.4
N#Cc1cc2c(Oc3ccc(NC(=O)Nc4ccc(F)cc4)c(F)c3)ccnc2cc1OCC(O)CN1CCOCC1 (centres unmarked) [Example 494, N-{4-[6-Cyano-7-(2-hydroxy-(3-morpholin-4-yl)propoxy)quinolin-4-yloxy]-2-fluorophenyl}-N′-(4-fluorophenyl)urea]	9.3
N#Cc1cc2c(Oc3ccc(NC(=O)Nc4ccc(F)cc4)cc3)ccnc2cc1OC[C@H](O)CN1CCCC1 [Example 454, N-(4-((6-Cyano-7-(((2R)-2-hydroxy-3-(1-pyrrolidino)propyl)oxy)-4-quinolyl)oxy)phenyl)-N′-(4-fluorophenyl)urea]	3.7
CCN(CC)C[C@@H](O)COc1cc2nccc(Oc3ccc(NC(=O)Nc4ccc(F)cc4)cc3)c2cc1C#N [Example 455, N-(4-((6-Cyano-7-(((2R)-3-(diethylamino)-2-hydroxypropyl)oxy)-4-quinolyl)oxy)phenyl)-N′-(4-fluorophenyl)urea]	7.8
N#Cc1cc2c(Oc3ccc(NC(=O)Nc4ccc(F)cc4)c(F)c3)ccnc2cc1OC[C@H](O)CN1CCCCC1 [Example 497, N-(4-{6-Cyano-7-[(2R)-2-hydroxy-3-(piperidin-1-yl)propoxy]quinolin-4-yloxy}-2-fluorophenyl)-N′-(4-fluorophenyl)urea]	4.6
N#Cc1cc2c(Oc3ccc4c(ccn4C(=O)Nc4nccs4)c3)ccnc2cc1OCCCN1CCCC1 [Example 289, 5-[6-Cyano-7-(3-(pyrrolidin-1-yl)propoxy)quinolin-4-yloxy]indole-1-carboxylic acid (thiazol-2-yl)amide]	4.6
COc1cc2nccc(Oc3ccc(NC(=O)NC4CC4)c(Cl)c3)c2cc1C(=O)Nc1ncc[nH]1 [Example 405, N6-(1H-2-Imidazolyl)-4-(3-chloro-4-(((cyclopropylamino)carbonyl)amino)phenoxy)-7-methoxy-6-quinolinecarboxamide]	28
N#Cc1cc2c(Oc3ccc(NC(=O)Nc4nccs4)c(F)c3)ccnc2cc1OCC1CCNCC1 [Example 503, N-{4-[6-Cyano-7-(piperidin-4-ylmethoxy)quinolin-4-yloxy]-2-fluorophenyl}-N′-(2-thiazolyl)urea]	6.4
